# Assay results taken from publication PMC8074287, “Analgesic and Anticancer Activity of Benzoxazole Clubbed 2-Pyrrolidinones as Novel Inhibitors of Monoacylglycerol Lipase” (Molecules, 2021).
# How the values were obtained:
# [1] = target: T1, hFAAH (Homo sapiens, UniProt O00519); experiment: Human FAAH inhibition assay (Cayman's assay kit); conditions: IC50, mean ± SEM (n = 3)
# T1 sequence (O00519 1-579): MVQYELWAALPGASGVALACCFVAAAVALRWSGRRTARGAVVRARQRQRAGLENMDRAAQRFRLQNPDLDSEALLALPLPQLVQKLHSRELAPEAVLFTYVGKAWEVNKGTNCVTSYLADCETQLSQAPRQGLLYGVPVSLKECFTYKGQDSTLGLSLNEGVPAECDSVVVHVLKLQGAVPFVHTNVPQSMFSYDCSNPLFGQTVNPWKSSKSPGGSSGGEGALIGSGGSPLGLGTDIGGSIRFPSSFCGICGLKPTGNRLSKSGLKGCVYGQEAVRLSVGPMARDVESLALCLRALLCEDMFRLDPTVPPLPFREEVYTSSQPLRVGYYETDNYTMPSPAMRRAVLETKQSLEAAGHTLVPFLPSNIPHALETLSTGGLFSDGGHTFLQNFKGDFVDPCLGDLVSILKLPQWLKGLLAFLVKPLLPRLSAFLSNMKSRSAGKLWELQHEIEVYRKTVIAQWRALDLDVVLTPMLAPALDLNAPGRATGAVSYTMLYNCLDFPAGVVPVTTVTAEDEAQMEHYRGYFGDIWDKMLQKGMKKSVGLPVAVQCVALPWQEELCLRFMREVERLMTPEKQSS
# [2] = system: NCI-H226; experiment: NCI60 single-dose SRB assay; format: cell-based, human; conditions: NCI-H226, Non-Small Cell Lung Cancer, 10 μM
# Procedure: (§1) Compounds 19 and 20 were supplied to National Cancer Institute (USA), for sulforhodamine B (SRB) assay and anticancer screening. Single-dose (10 µM) assay results for compounds 19 and 20 were provided as a mean of percent growth (% G) and growth inhibition (% GI) against 60 cell lines of nine types of cancers and are tabulated in Table 4. […] Both the compounds 19 and 20 were also found active on UO-31 renal cancer cell line with % GI of 21.18 and 29.95, respectively.
# (§2) Compounds 19 and 20 were supplied to National Cancer Institute (Bethesda, Maryland, USA), for in vitro sulforhodamine B (SRB) assay, anticancer screening on 60 cell lines of cancers of leukemia, melanoma, and tumors of the kidney, brain, breast, lung, colon, ovary, and prostate, as per their standard protocol. One dose anticancer results (NCI, USA) of compounds 19 and 20 are provided in the Supplementary Materials.
# [3] = system: CAKI-1; experiment: NCI60 single-dose SRB assay; format: cell-based, human; conditions: CAKI-1, Renal Cancer, 10 μM
# Procedure: as §1, §2
# [4] = system: UACC-257; experiment: NCI60 single-dose SRB assay; format: cell-based, human; conditions: UACC-257, Melanoma, 10 μM
# Procedure: as §1, §2
# [5] = system: NCI/ADR-RES; experiment: NCI60 single-dose SRB assay; format: cell-based, human; conditions: Ovarian Cancer, 10 μM
# Procedure: as §1, §2
# [6] = system: TK-10; experiment: NCI60 single-dose SRB assay; format: cell-based, human; conditions: TK-10, Renal Cancer, 10 μM
# Procedure: as §1, §2
# [7] = system: UO-31; experiment: NCI60 single-dose SRB assay; format: cell-based, human; conditions: UO-31, Renal Cancer, 10 μM
# Procedure: as §1, §2
# [8] = system: NCI-H23; experiment: NCI60 single-dose SRB assay; format: cell-based, human; conditions: NCI-H23, Non-Small Cell Lung Cancer, 10 μM
# Procedure: as §1, §2
# [9] = system: MDA-MB-231/ATCC; experiment: NCI60 single-dose SRB assay; format: cell-based, human; conditions: Breast Cancer, 10 μM
# Procedure: as §1, §2
# [10] = system: LOX IMVI; experiment: NCI60 single-dose SRB assay; format: cell-based, human; conditions: Melanoma, 10 μM
# Procedure: as §1, §2
# [11] = system: 786-0; experiment: NCI60 single-dose SRB assay; format: cell-based, human; conditions: 786-0, Renal Cancer, 10 μM
# Procedure: as §1, §2
# [12] = system: SK-MEL-2; experiment: NCI60 single-dose SRB assay; format: cell-based, human; conditions: SK-MEL-2, Melanoma, 10 μM
# Procedure: as §1, §2
# [13] = system: UACC-62; experiment: NCI60 single-dose SRB assay; format: cell-based, human; conditions: UACC-62, Melanoma, 10 μM
# Procedure: as §1, §2
# [14] = system: HCC-2998; experiment: NCI60 single-dose SRB assay; format: cell-based, human; conditions: HCC-2998, Colon Cancer, 10 μM
# Procedure: as §1, §2
# [15] = system: NCI-H322M; experiment: NCI60 single-dose SRB assay; format: cell-based, human; conditions: Non-Small Cell Lung Cancer, 10 μM
# Procedure: as §1, §2
# [16] = system: HS 578T; experiment: NCI60 single-dose SRB assay; format: cell-based, human; conditions: Breast Cancer, 10 μM
# Procedure: as §1, §2
# [17] = system: PC-3; experiment: NCI60 single-dose SRB assay; format: cell-based, human; conditions: PC-3, Prostate Cancer, 10 μM
# Procedure: as §1, §2
# [18] = system: HCT-116; experiment: NCI60 single-dose SRB assay; format: cell-based, human; conditions: HCT-116, Colon Cancer, 10 μM
# Procedure: as §1, §2
# [19] = system: A549/ATCC; experiment: NCI60 single-dose SRB assay; format: cell-based, human; conditions: Non-Small Cell Lung Cancer, 10 μM
# Procedure: as §1, §2
# [20] = system: SF-539; experiment: NCI60 single-dose SRB assay; format: cell-based, human; conditions: SF-539, CNS Cancer, 10 μM
# Procedure: as §1, §2
# [21] = system: HL-60(TB); experiment: NCI60 single-dose SRB assay; format: cell-based, human; conditions: Leukemia, 10 μM
# Procedure: as §1, §2
# [22] = target: T2, hMAGL (Homo sapiens, UniProt Q99685); experiment: Human MAGL inhibition assay (Cayman's assay kit)
# T2 sequence (Q99685 1-303): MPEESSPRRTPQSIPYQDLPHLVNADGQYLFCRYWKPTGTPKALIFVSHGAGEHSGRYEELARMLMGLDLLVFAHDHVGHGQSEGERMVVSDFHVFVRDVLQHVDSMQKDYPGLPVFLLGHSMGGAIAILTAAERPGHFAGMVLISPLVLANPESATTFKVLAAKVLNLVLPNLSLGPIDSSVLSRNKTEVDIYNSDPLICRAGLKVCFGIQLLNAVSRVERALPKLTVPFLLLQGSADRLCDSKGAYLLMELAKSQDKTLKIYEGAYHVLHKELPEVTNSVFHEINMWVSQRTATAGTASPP
smiles,measurement,setting,value
"O=C1CC(c2nc3ccccc3o2)CN1c1ccc([N+](=O)[O-])cc1 (centres unmarked) [Compound 19, 4-(Benzo[d]oxazol-2-yl)-1-(4-nitrophenyl)pyrrolidin-2-one]",IC50,[1],55 ± 2.7 µM
same,% G,[2],98.63%
same,% GI,[2],1.37%
same,% G,[3],97.19%
same,% GI,[3],2.81%
same,% G,[4],106.92%
same,% GI,[4],−6.92%
same,% G,[5],98.37%
same,% GI,[5],1.63%
same,% G,[6],110.14%
same,% GI,[6],−10.14%
same,% G,[7],78.82%
same,% GI,[7],21.18%
same,% G,[8],93.07%
same,% GI,[8],6.93%
same,% G,[9],88.41%
same,% GI,[9],11.59%
same,% G,[10],89.06%
same,% GI,[10],10.94%
same,% G,[11],104.06%
same,% GI,[11],−4.06%
same,% G,[12],102.31%
same,% GI,[12],−2.31%
same,% G,[13],97.59%
same,% GI,[13],2.41%
same,% G,[14],102.05%
same,% GI,[14],−2.05%
same,% G,[15],94.18%
same,% GI,[15],5.82%
same,% G,[16],101.81%
same,% GI,[16],−1.81%
same,% G,[17],91.14%
same,% GI,[17],8.86%
same,% G,[18],102.14%
same,% GI,[18],−2.14%
same,% G,[19],100.60%
same,% GI,[19],−0.60%
same,% G,[20],95.59%
same,% GI,[20],4.41%
same,% G,[21],100.09%
same,% GI,[21],−0.09%
same,IC50,[22],8.4 ± 1.9 nM
"NS(=O)(=O)c1ccc(N2CC(c3nc4ccccc4o3)CC2=O)cc1 (centres unmarked) [Compound 20, 4-(4-(Benzo[d]oxazol-2-yl)-2-oxopyrrolidin-1-yl)benzenesulfonamide]",IC50,[1],68 ± 2.1 µM
same,% G,[2],92.75%
same,% GI,[2],7.25%
same,% G,[3],92.35%
same,% GI,[3],7.65%
same,% G,[4],110.78%
same,% GI,[4],−10.78%
same,% G,[5],101.45%
same,% GI,[5],−1.45%
same,% G,[6],114.82%
same,% GI,[6],−14.82%
same,% G,[7],70.05%
same,% GI,[7],29.95%
same,% G,[8],92.19%
same,% GI,[8],7.81%
same,% G,[9],80.11%
same,% GI,[9],19.89%
same,% G,[10],92.99%
same,% GI,[10],7.01%
same,% G,[11],98.99%
same,% GI,[11],1.01%
same,% G,[12],111.54%
same,% GI,[12],−11.54%
same,% G,[13],92.78%
same,% GI,[13],7.22%
same,% G,[14],100.24%
same,% GI,[14],−0.24%
same,% G,[15],99.10%
same,% GI,[15],0.90%
same,% G,[16],104.19%
same,% GI,[16],−4.19%
same,% G,[17],88.11%
same,% GI,[17],11.89%
same,% G,[18],95.78%
same,% G,[19],95.28%
same,% GI,[19],4.72%
same,% G,[20],87.58%
same,% GI,[20],12.42%
same,% G,[21],96.15%
same,% GI,[21],3.85%
same,IC50,[22],7.6 ± 0.8 nM
